Data taken from patent US7030123B2, “Indole derivatives with vascular damaging activity” (AstraZeneca AB, priority 2000, dated 2006).
Blank lines part the entries; values can stand above or below the compound they belong to.

Key:
[1] = system: colchicine binding site on tubulin (purified tubulin protein from bovine brain); experiment: Colchicine binding site competitive assay; conditions: dose of compound of 10 μM; relative to DMSO negative control
Procedure: (i) Colchicine Binding Site Competitive Assay Kit.
The ability of a ligand to bind specifically to the coichicine binding site on tubulin, an indicator of the vascular damaging activity, was assessed using a size exclusion chromatography assay kit from “Cytoskeleton” (1650 Fillmore St. #240, Denver, Colo. 80206, U.S.A.) Catalogue number of kit: BK023.
The following reagents were used: • tubulin buffer, to give 0.1 mM GTP, 0.5 mM MgCl2, 0.5 mM EGTA, 40 mM PIPES buffer at pH6.9 in the final reaction mix; • purified tubulin protein from bovine brain at 1 mg/ml in tubulin buffer; • 0.02 mM fluorescent coichicine in tubulin buffer [FITC (fluorescein isothiocyanate)-labelled]; • 2 mM colchicine in tubulin buffer; • 0.2 mM vinblastine in tubulin buffer; and • G-25 Sephadex™ Fine-particle size 34-138 μm.
The reaction was performed as follows: • 8 μl of test compound (dissolved in DMSO) was gently mixed with 150 μl of tubulin. This was then incubated at 37° C. for 30 minutes. […]
Chromatography was performed as follows, using chromatography columns filled with 3 mls of G-25 Sephadex™ Fine slurry. […] The fluorescence of the tubulin-containing fractions was detected on a spectrophotometer which excites at 485 nm and emits at 535 nm. […]
The degree of competition of colchicine binding by either unlabelled colchicine or test compound was calculated relative to the DMSO negative control.

[2] = system: HUVECs (Human umbilical cord vein endothelial cells); experiment: HUVEC detachment assay; format: cell-based; conditions: for activity in the HUVEC cell detachment assay (detachment): dose of compound of 100 μM, 40 minutes, versus undosed control wells
Excerpt: (ii) HUVEC Detachment Assay
Compounds according to the invention are expected to be able to damage vasculature, such as tumour vasculature, that has been newly formed whilst leaving normal, mature vasculature unaffected. The identification of compounds which can selectively, and preferably potently, damage newly-formed vasculature is desirable and is the subject of the present invention. The ability of the compounds to act in this way may be assessed, for example, using the procedure set out below:
This assay examined the effects of compounds on the adherence of HUVECs (Human umbilical cord vein endothelial cells) to tissue culture plasticware.
HUVECs (supplied by TCS Biologicals Ltd, Buckingham, United Kingdom) were plated in 0.2% gelatin-coated 12 well tissue culture plates at a concentration of 3×10^4 cells per well in 1 ml TCS medium. After 24 hours, when the cells were at ˜30% confluency, they were dosed with a compound under test for 40 minutes at 37° C., 5% CO2. After this incubation the medium containing drug was pipetted off, and the cells were then gently washed in 2 mls of HBSS (Hanks' Balanced Salt Solution purchased from Life Technologies Ltd, Paisley UK; Catalogue # 24020-083) to remove any detached cells. The washing solution was then removed, and the adherent cells remaining were trypsinised using 300 μl of 1×Trypsin-EDTA solution (Life Technologies Ltd, Paisley, UK; Catalogue # 43500-019) at ambient temperature for 2 minutes. The trypsinised cells were then made up to 1 ml with TCS Biologicals medium, then centrifuged at 2000 rpm for 2 minutes. The cell pellet was then resuspended in a volume of 50 μl of TCS Biologicals medium. Total cell counts were obtained by counting the cells on a haemocytometer. The amount of cell detachment was calculated by comparing the number of cells remaining attached following treatment with the number in undosed control wells.

[3] = Dark et al 1997 Cancer Research 57, 1829-1834; cited from earlier work

Structure (SMILES): CC(=O)O[C@H]1C(=O)[C@@]2(C)[C@H]([C@H](OC(=O)c3ccccc3)[C@]3(O)C[C@H](OC(=O)[C@H](O)[C@@H](NC(=O)c4ccccc4)c4ccccc4)C(C)=C1C3(C)C)[C@]1(OC(C)=O)CO[C@@H]1C[C@@H]2O [Taxol, reference compound]
cell detachment in the HUVEC detachment assay [2]: does not cause cell detachment

Structure (SMILES): COc1ccc(/C=C\c2cc(OC)c(OC)c(OC)c2)cc1O [Combretastatin A4]
anti-vascular effects at doses below the MTD [3]: greater than 10 times less than the MTD

Structure (SMILES): COc1ccc(Oc2ccc3[nH]c(N)c(C#N)c3c2)cc1 [Example 9, 5-(4-Methoxyphenoxy)-2-amino-1H-indole-3-carbonitrile]
melting point: 216 to 217 °C

Structure (SMILES): COc1cc2c(c(OC)c1OC)-c1ccc(OC)c(=O)cc1[C@@H](NC(C)=O)CC2 [colchicine]
doses at which vascular damaging activity is elicited, relative to the maximum tolerated dose (MTD) [3]: only elicit vascular damaging activity at doses approaching the maximum tolerated dose

Structure (SMILES): CC[C@]1(O)C[C@H]2CN(CCc3c([nH]c4ccccc34)[C@@](C(=O)OC)(c3cc4c(cc3OC)N(C=O)[C@H]3[C@@](O)(C(=O)OC)[C@H](OC(C)=O)[C@]5(CC)C=CCN6CC[C@]43[C@@H]65)C2)C1 [vincristine]
doses at which vascular damaging activity is elicited, relative to the maximum tolerated dose (MTD) [3]: only elicit vascular damaging activity at doses approaching the maximum tolerated dose

The next lines start with results.

activity in the colchicine binding site competitive assay (competition) [1]: 36%
melting point: 241 to 242 °C
Structure (SMILES): N#Cc1c(N)[nH]c2ccc(Sc3ccc(O)cc3)cc12 [Example 2, 5-(4-Hydroxyphenylsulphanyl)-2-amino-1H-indole-3-carbonitrile]
activity in the HUVEC cell detachment assay (detachment) [2]: 55%

melting point: 208 to 209 °C
Structure (SMILES): COc1cc(Oc2ccc3[nH]c(N)c(C#N)c3c2)cc(OC)c1OC [Example 11, 5-(3,4,5-Trimethoxyphenoxy)-2-amino-1H-indole-3-carbonitrile]

melting point: 169 to 173 °C
Structure (SMILES): COc1ccc(Sc2ccc3[nH]c(N)c(C#N)c3c2)cc1OC [Example 3, 5-(3,4-Dimethoxyphenylsulphanyl)-2-amino-1H-indole-3-carbonitrile]

activity in the colchicine binding site competitive assay (competition) [1]: 31%
Structure (SMILES): Cc1cc2[nH]c(N)c(C#N)c2cc1F [Example 8, 6-methyl-5-fluoro-2-amino-1H-indole-3-carbonitrile]
activity in the HUVEC cell detachment assay (detachment) [2]: 34%
